Assay results reported in patent US20050112573A1, “Method of detecting toxic substance” (priority 2001, published 2005).

Tested on: yeast genes (level of expressed mRNA)
Assay: DNA chip analysis of expressed mRNA of yeast genes after 2 h culture with a toxic chemical substance
Format: cell-based, Saccharomyces cerevisiae S288C
Method in brief: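 S. cerevisiae S288C grown at 25° C in YPD; toxicant added at log phase at growth-inhibitory, non-lethal levels for 2 h, untreated cells as control. Poly(A) mRNA reverse-transcribed with Cy3/Cy5-dUTP, hybridized to whole-genome chip at 65° C >12 h; value is fluorescence ratio versus untreated.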

C[S+](C)[O-] [(15), dimethylsulfoxide]
level of expressed mRNA in the presence of chemical substance/in its absence (gene YAL012W): 3.1 | The level of expressed mRNA in the presence of chemical substance/absence: YAL014C (gene YAL014C): 2.3 | The level of expressed mRNA in the presence of chemical substance/absence: YAL017W (gene YAL017W): 1.0 | The level of expressed mRNA in the presence of chemical substance/absence: YAL018C (gene YAL018C): 6.9 | level of expressed mRNA in the presence of chemical substance/in its absence (gene YAL038W): 3.1 | level of expressed mRNA in the presence of chemical substance/in its absence (gene YAL044C): 0.7 | The level of expressed mRNA in the presence of chemical substance/absence: YAL049C (gene YAL049C): 1.4 | level of expressed mRNA in the presence of chemical substance/in its absence (gene YAL054C): 0.9 | The level of expressed mRNA in the presence of chemical substance/absence: YAR047C (gene YAR047C): 0.5 | The level of expressed mRNA in the presence of chemical substance/absence: YAR064W (gene YAR064W): 1.9 | level of expressed mRNA in the presence of chemical substance/in its absence (gene YAR071W): 1.1 | level of expressed mRNA in the presence of chemical substance/in its absence (gene YBL001C): 1.0 | The level of expressed mRNA in the presence of chemical substance/absence: YBL044W (gene YBL044W): 0.7 | The level of expressed mRNA in the presence of chemical substance/absence: YBL100C (gene YBL100C): 1.0 | The level of expressed mRNA in the presence of chemical substance/absence: YBR012C (gene YBR012C): 1.1 | The level of expressed mRNA in the presence of chemical substance/absence: YBR013C (gene YBR013C): 1.1 | level of expressed mRNA in the presence of chemical substance/in its absence (gene YBR014C): 1.2 | level of expressed mRNA in the presence of chemical substance/in its absence (gene YBR023C): 2.8 | level of expressed mRNA in the presence of chemical substance/in its absence (gene YBR029C): 3.5 | level of expressed mRNA in the presence of chemical substance/in its absence (gene YBR035C): 0.7 | level of expressed mRNA in the presence of chemical substance/in its absence (gene YBR050C): 0.5 | The level of expressed mRNA in the presence of chemical substance/absence: YBR051W (gene YBR051W): 0.8 | The level of expressed mRNA in the presence of chemical substance/absence: YBR063C (gene YBR063C): 1.6 | The level of expressed mRNA in the presence of chemical substance/absence: YBR066C (gene YBR066C): 0.4 | level of expressed mRNA in the presence of chemical substance/in its absence (gene YBR068C): 1.6 | level of expressed mRNA in the presence of chemical substance/in its absence (gene YBR111C): 0.7 | The level of expressed mRNA in the presence of chemical substance/absence: YBR124W (gene YBR124W): 1.0 | The level of expressed mRNA in the presence of chemical substance/absence: YBR129C (gene YBR129C): 0.9 | level of expressed mRNA in the presence of chemical substance/in its absence (gene YBR145W): 1.2 | The level of expressed mRNA in the presence of chemical substance/absence: YBR162C (gene YBR162C): 1.9 | level of expressed mRNA in the presence of chemical substance/in its absence (gene YBR183W): 1.1 | level of expressed mRNA in the presence of chemical substance/in its absence (gene YBR222C): 4.3 | The level of expressed mRNA in the presence of chemical substance/absence: YBR255W (gene YBR255W): 1.0 | The level of expressed mRNA in the presence of chemical substance/absence: YBR281C (gene YBR281C): 1.0 | The level of expressed mRNA in the presence of chemical substance/absence: YBR287W (gene YBR287W): 1.3 | level of expressed mRNA in the presence of chemical substance/in its absence (gene YBR299W): 0.6 | level of expressed mRNA in the presence of chemical substance/in its absence (gene YCL009C): 6.5 | The level of expressed mRNA in the presence of chemical substance/absence: YCL044C (gene YCL044C): 4.4 | The level of expressed mRNA in the presence of chemical substance/absence: YCL056C (gene YCL056C): 1.7 | level of expressed mRNA in the presence of chemical substance/in its absence (gene YCL064C): 21.4 | The level of expressed mRNA in the presence of chemical substance/absence: YCR007C (gene YCR007C): 0.8 | level of expressed mRNA in the presence of chemical substance/in its absence (gene YCR037C): 1.0 | level of expressed mRNA in the presence of chemical substance/in its absence (gene YCR048W): 3.1 | level of expressed mRNA in the presence of chemical substance/in its absence (gene YCR098C): 11.0 | level of expressed mRNA in the presence of chemical substance/in its absence (gene YDL022W): 0.9 | The level of expressed mRNA in the presence of chemical substance/absence: YDL046W (gene YDL046W): 2.3 | The level of expressed mRNA in the presence of chemical substance/absence: YDL089W (gene YDL089W): 1.6 | The level of expressed mRNA in the presence of chemical substance/absence: YDL173W (gene YDL173W): 1.1 | The level of expressed mRNA in the presence of chemical substance/absence: YDL193W (gene YDL193W): 1.2 | The level of expressed mRNA in the presence of chemical substance/absence: YDL233W (gene YDL233W): 1.3 | level of expressed mRNA in the presence of chemical substance/in its absence (gene YDR009W): 3.2 | level of expressed mRNA in the presence of chemical substance/in its absence (gene YDR019C): 1.8 | The level of expressed mRNA in the presence of chemical substance/absence: YDR071C (gene YDR071C): 0.9 | The level of expressed mRNA in the presence of chemical substance/absence: YDR078C (gene YDR078C): 0.5 | The level of expressed mRNA in the presence of chemical substance/absence: YDR090C (gene YDR090C): 1.1 | The level of expressed mRNA in the presence of chemical substance/absence: YDR109C (gene YDR109C): 1.7 | The level of expressed mRNA in the presence of chemical substance/absence: YDR128W (gene YDR128W): 1.4 | The level of expressed mRNA in the presence of chemical substance/absence: YDR133C (gene YDR133C): 0.6 | The level of expressed mRNA in the presence of chemical substance/absence: YDR140W (gene YDR140W): 0.9 | The level of expressed mRNA in the presence of chemical substance/absence: YDR221W (gene YDR221W): 1.0 | The level of expressed mRNA in the presence of chemical substance/absence: YDR250C (gene YDR250C): 0.7 | The level of expressed mRNA in the presence of chemical substance/absence: YDR271C (gene YDR271C): 1.3 | The level of expressed mRNA in the presence of chemical substance/absence: YDR278C (gene YDR278C): 0.7 | The level of expressed mRNA in the presence of chemical substance/absence: YDR281C (gene YDR281C): 0.3 | The level of expressed mRNA in the presence of chemical substance/absence: YDR316W (gene YDR316W): 1.3 | The level of expressed mRNA in the presence of chemical substance/absence: YDR338C (gene YDR338C): 0.8 | The level of expressed mRNA in the presence of chemical substance/absence: YDR366C (gene YDR366C): 1.4 | level of expressed mRNA in the presence of chemical substance/in its absence (gene YDR380W): 2.4 | level of expressed mRNA in the presence of chemical substance/in its absence (gene YDR410C): 1.2 | The level of expressed mRNA in the presence of chemical substance/absence: YDR421W (gene YDR421W): 1.9 | The level of expressed mRNA in the presence of chemical substance/absence: YDR425W (gene YDR425W): 1.3 | The level of expressed mRNA in the presence of chemical substance/absence: YDR485C (gene YDR485C): 1.3 | level of expressed mRNA in the presence of chemical substance/in its absence (gene YDR487C): 1.0 | level of expressed mRNA in the presence of chemical substance/in its absence (gene YDR502C): 8.2 | The level of expressed mRNA in the presence of chemical substance/absence: YDR504C (gene YDR504C): 1.2 | level of expressed mRNA in the presence of chemical substance/in its absence (gene YEL011W): 0.4 | level of expressed mRNA in the presence of chemical substance/in its absence (gene YEL020C): 1.4 | The level of expressed mRNA in the presence of chemical substance/absence: YEL044W (gene YEL044W): 0.6 | level of expressed mRNA in the presence of chemical substance/in its absence (gene YER026C): 4.0 | level of expressed mRNA in the presence of chemical substance/in its absence (gene YER069W): 2.4 | The level of expressed mRNA in the presence of chemical substance/absence: YER092W (gene YER092W): 1.0 | The level of expressed mRNA in the presence of chemical substance/absence: YER182W (gene YER182W): 0.5 | The level of expressed mRNA in the presence of chemical substance/absence: YFL042C (gene YFL042C): 1.1 | level of expressed mRNA in the presence of chemical substance/in its absence (gene YFR015C): 0.4 | The level of expressed mRNA in the presence of chemical substance/absence: YFR026C (gene YFR026C): 2.3 | The level of expressed mRNA in the presence of chemical substance/absence: YFR056C (gene YFR056C): 0.9 | level of expressed mRNA in the presence of chemical substance/in its absence (gene YGL001C): 0.9 | level of expressed mRNA in the presence of chemical substance/in its absence (gene YGL022W): 4.0 | level of expressed mRNA in the presence of chemical substance/in its absence (gene YGL039W): 1.5 | The level of expressed mRNA in the presence of chemical substance/absence: YGL041C (gene YGL041C): 0.7 | The level of expressed mRNA in the presence of chemical substance/absence: YGL045W (gene YGL045W): 1.5 | The level of expressed mRNA in the presence of chemical substance/absence: YGL057C (gene YGL057C): 0.7 | The level of expressed mRNA in the presence of chemical substance/absence: YGL088W (gene YGL088W): 0.4 | level of expressed mRNA in the presence of chemical substance/in its absence (gene YGL104C): 0.9 | level of expressed mRNA in the presence of chemical substance/in its absence (gene YGL126W): 2.8 | level of expressed mRNA in the presence of chemical substance/in its absence (gene YGL134W): 0.5 | level of expressed mRNA in the presence of chemical substance/in its absence (gene YGL154C): 0.8 | The level of expressed mRNA in the presence of chemical substance/absence: YGL183C (gene YGL183C): 1.7 | level of expressed mRNA in the presence of chemical substance/in its absence (gene YGL209W): 3.2 | The level of expressed mRNA in the presence of chemical substance/absence: YGL223C (gene YGL223C): 0.7 | level of expressed mRNA in the presence of chemical substance/in its absence (gene YGL253W): 0.8 | The level of expressed mRNA in the presence of chemical substance/absence: YGR038W (gene YGR038W): 1.1 | level of expressed mRNA in the presence of chemical substance/in its absence (gene YGR060W): 1.4 | The level of expressed mRNA in the presence of chemical substance/absence: YGR139W (gene YGR139W): 2.3 | The level of expressed mRNA in the presence of chemical substance/absence: YGR156W (gene YGR156W): 1.3 | The level of expressed mRNA in the presence of chemical substance/absence: YGR198W (gene YGR198W): 0.9 | The level of expressed mRNA in the presence of chemical substance/absence: YGR210C (gene YGR210C): 1.3 | The level of expressed mRNA in the presence of chemical substance/absence: YGR211W (gene YGR211W): 0.5 | The level of expressed mRNA in the presence of chemical substance/absence: YGR237C (gene YGR237C): 1.1 | The level of expressed mRNA in the presence of chemical substance/absence: YGR243W (gene YGR243W): 0.8 | The level of expressed mRNA in the presence of chemical substance/absence: YGR250C (gene YGR250C): 1.2 | The level of expressed mRNA in the presence of chemical substance/absence: YGR266W (gene YGR266W): 1.1 | The level of expressed mRNA in the presence of chemical substance/absence: YGR277C (gene YGR277C): 0.9 | level of expressed mRNA in the presence of chemical substance/in its absence (gene YGR282C): 2.9
